Source: patent US20080255155A1, “KINASE INHIBITORS AND USES THEREOF” (priority 2006, published 2008)

Legend:
DU145 = DU145 scattering inhibition; settings: Homo sapiens, DU-145; DU145 cells; read-out: Potency in cell-based assays DU145 scattering inhibition
VEGF receptor KDR = biological target: T1, VEGF receptor KDR (Homo sapiens, UniProt P35968); experiment: In vitro receptor tyrosine kinase assay, VEGF receptor KDR (DELFIA); format: biochemical; settings: ATP 0.6 uM, enzyme 5 nM; read-out: Potency in enzyme assays VEGF
T1 construct: made in house; host or cells: Sf9 cells (Spodoptera frugiperda), recombinant baculovirus
Source text: (§1) These tests measure the ability of compounds to inhibit the enzymatic activity of recombinant human c-Met/HGF receptor and VEGF receptor enzymatic activity.
In the case of VEGF receptor KDR a 1.6-kb cDNA corresponding to the catalytic domain of VEGFR2 or KDR (Genbank accession number AF035121 amino acid 806 to 1356) is cloned into the Pst I site of the pDEST20 Gateway vector (Invitrogen) for the production of a GST-tagged version of that enzyme. This construct is used to generate recombinant baculovirus using the Bac-to-Bac system according to the manufacturer's instructions (Invitrogen).
(§2) The GST-VEGFR2806-1356 protein is expressed in Sf9 cells (Spodoptera frugiperda) upon infection with recombinant baculovirus construct. Briefly, Sf9 cells grown in suspension and maintained in serum-free medium (Sf900 II supplemented with gentamycin) at a cell density of about 2×10^6 cells/ml are infected with the above-mentioned viruses at a multiplicity of infection (MOI) of 0.1 during 72 hours at 27° C. with agitation at 120 rpm on a rotary shaker. Infected cells are harvested by centrifugation at 398 g for 15 min. Cell pellets are frozen at −80° C. until purification is performed.
All steps described in cell extraction and purification are performed at 4° C. Frozen Sf9 cell pellets infected with the GST-VEGFR2806-1356 recombinant baculovirus re thawed and gently resuspended in Buffer A (PBS pH 7.3 supplemented with 1 μg/ml pepstatin, 2 μg/ml Aprotinin and leupeptin, 50 μg/ml PMSF, 50 μg/ml TLCK and 10 μM E64 and 0.5 mM DTT) using 3 ml of buffer per gram of cells. Suspension is Dounce homogenized and 1% Triton X-100 is added to the homogenate after which it is centrifuged at 22500 g, 30 min., 4° C. The supernatant (cell extract) is used as starting material for purification of GST-VEGFR2806-1356.
The supernatant is loaded onto a GST-agarose column (Sigma) equilibrated with PBS pH 7.3. Following a four column volume (CV) wash with PBS pH 7.3+1% Triton X-100 and 4 CV wash with buffer B (50 mM Tris pH 8.0, 20% glycerol and 100 mM NaCl), bound proteins are step eluted with 5 CV of buffer B supplemented with 5 mM DTT and 15 mM glutathion. GST-VEGFR2806-1356 enriched fractions from this chromatography step are pooled based on U.V. trace i.e. fractions with high O.D^-280- Final GST-VEGFR2806-1356 protein preparations concentrations are about 0.7 mg/ml with purity approximating 70%. Purified GST-VEGFR2806-1356 protein stocks are aliquoted and frozen at −80° C. prior to use in enzymatic assay.
Inhibition of c-Met/HGF receptor and VEGFR/KDR is measured in a DELFIA™ assay (Perkin Elmer). The substrate poly(Glu4,Tyr) is immobilized onto black high-binding polystyrene 96-well plates. The coated plates are washed and stored at 4° C. During the assay, enzymes are pre-incubated with inhibitor and Mg-ATP on ice in polypropylene 96-well plates for 4 minutes, and then transferred to the coated plates. The subsequent kinase reaction takes place at 30° C. for 10-30 minutes. ATP concentrations in the assay are 10 uM for C-Met (5× the Km) and 0.6 uM for VEGFR/KDR (2× the Km). Enzyme concentration is 25 nM (C-Met) or 5 nM (VEGFR/KDR). After incubation, the kinase reactions are quenched with EDTA and the plates are washed. Phosphorylated product is detected by incubation with Europium-labeled anti-phosphotyrosine MoAb. After washing the plates, bound MoAb is detected by time-resolved fluorescence in a Gemini SpectraMax reader (Molecular Devices). Compounds are evaluated over a range of concentrations and IC50's (concentration of compounds giving 50% inhibition of enzymatic activity) are determined.

[1] = biological target: T2, recombinant human c-Met/HGF receptor (Homo sapiens, UniProt P08581); experiment: In vitro receptor tyrosine kinase assay, c-Met (DELFIA); format: biochemical; settings: ATP 10 uM, enzyme 25 nM; read-out: Potency in enzyme assays Cmet
T2 construct: His tag; made in house; host or cells: Hi-5 cells (Trichoplusia ni), recombinant baculovirus
Source text: as §1
A 1.3-kb cDNA corresponding to the intracellular domain of c-Met or c-Met IC (Genbank accession number NP000236-1 amino acid […]) is cloned into the BamHI/XhoI sites of the pBlueBacHis2A vector (Invitrogen) for the production of a histidine-tagged version of that enzyme. This construct is used to generate recombinant baculovirus using the Bac-N-Blue™ system according to the manufacturer's instructions (Invitrogen).
as §2, with “The c-Met IC” for “The GST-VEGFR2806-1356”, “in Hi-5” for “in Sf9”, “cells (Trichoplusia Ni)” for “cells (Spodoptera frugiperda)”, “Briefly, Hi-5” for “Briefly, Sf9”, “of 0.2” for “of 0.1”
All steps described in cell extraction and purification are performed at 4° C. Frozen Hi-5 cell pellets infected with the C-Met IC recombinant baculovirus are thawed and gently resuspended in Buffer A (20 mM Tris pH 8.0, 10% glycerol, 1 μg/ml pepstatin, 2 μg/ml Aprotinin and leupeptin, 50 μg/ml PMSF, 50 μg/ml TLCK and 10 μM E64, 0.5 mM DTT and 1 mM Levamisole) using 3 ml of buffer per gram of cells. The suspension is Dounce homogenized after which it is centrifuged at 22500 g, 30 min., 4° C. The supernatant (cell extract) is used as starting material for purification of c-Met IC.
The supernatant is loaded onto a QsepharoseFF column (Amersham Biosciences) equilibrated with Buffer B (20 mM Tris pH 8.0, 10% glycerol) supplemented with 0.05M NaCl. Following a ten column volume (CV) wash with equilibration buffer, bound proteins are eluted with a 5 CV salt linear gradient spanning from 0.05 to 1M NaCl in Buffer B. Typically, the conductivity of selected fractions rank between 6.5 and 37 mS/cm. This Qsepharose eluate has an estimated NaCl concentration of 0.33M and is supplemented with a 5M NaCl solution in order to increase NaCl concentration at 0.5M and also with a 5M Imidazole (pH 8.0) solution to achieve a final imidazole concentration of 15 mM. This material is loaded onto a HisTrap affinity column (GE Healthcare) equilibrated with Buffer C (50 mM NaPO4 pH 8.0, 0.5M NaCl, 10% glycerol) supplemented with 15 mM imidazole. After a 10 CV wash with equilibration buffer and an 8 CV wash with buffer C+40 mM imidazole, bound proteins are eluted with an 8 CV linear gradient (15 to 500 mM) of imidazole in buffer C. C-Met IC enriched fractions from this chromatography step are pooled based on SDS-PAGE analysis. This pool of enzyme undergoes buffer exchange using PD-10 column (GE Healthcare) against buffer D (25 mM HEPES pH 7.5, 0.1M NaCl, 10% glycerol and 2 mM β-mercaptoethanol). Final C-Met IC protein preparations concentrations are about 0.5 mg/ml with purity approximating 80%. Purified c-Met IC protein stocks are supplemented with BSA at 1 mg/ml, aliquoted and frozen at −80° C. prior to use in enzymatic assay.
Inhibition of c-Met/HGF receptor and VEGFR/KDR is measured in a DELFIA™ assay (Perkin Elmer). The substrate poly(Glu4,Tyr) is immobilized onto black high-binding polystyrene 96-well plates. The coated plates are washed and stored at 4° C. During the assay, enzymes are pre-incubated with inhibitor and Mg-ATP on ice in polypropylene 96-well plates for 4 minutes, and then transferred to the coated plates. The subsequent kinase reaction takes place at 30° C. for 10-30 minutes. ATP concentrations in the assay are 10 uM for C-Met (5× the Km) and 0.6 uM for VEGFR/KDR (2× the Km). Enzyme concentration is 25 nM (C-Met) or 5 nM (VEGFR/KDR). […]

A549 = A549 wound healing inhibition; settings: Homo sapiens; A549 cells; read-out: Potency in cell-based assays A549 wound healing inhibition

T1 sequence (P35968 806-1356): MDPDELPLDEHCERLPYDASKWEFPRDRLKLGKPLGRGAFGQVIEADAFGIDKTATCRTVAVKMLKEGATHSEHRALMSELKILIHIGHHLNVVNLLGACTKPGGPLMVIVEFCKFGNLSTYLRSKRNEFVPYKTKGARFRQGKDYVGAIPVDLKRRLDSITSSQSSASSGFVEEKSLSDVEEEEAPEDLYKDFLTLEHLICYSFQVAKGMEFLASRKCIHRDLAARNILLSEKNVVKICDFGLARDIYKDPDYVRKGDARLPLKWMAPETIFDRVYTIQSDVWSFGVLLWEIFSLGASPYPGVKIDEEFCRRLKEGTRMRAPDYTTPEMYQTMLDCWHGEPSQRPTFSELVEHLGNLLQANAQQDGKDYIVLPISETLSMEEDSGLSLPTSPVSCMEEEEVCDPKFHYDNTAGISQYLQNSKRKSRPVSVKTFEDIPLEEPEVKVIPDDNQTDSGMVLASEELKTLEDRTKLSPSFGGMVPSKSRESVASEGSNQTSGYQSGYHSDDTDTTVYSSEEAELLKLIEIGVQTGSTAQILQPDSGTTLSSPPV
T2 sequence (P08581 1078-1337): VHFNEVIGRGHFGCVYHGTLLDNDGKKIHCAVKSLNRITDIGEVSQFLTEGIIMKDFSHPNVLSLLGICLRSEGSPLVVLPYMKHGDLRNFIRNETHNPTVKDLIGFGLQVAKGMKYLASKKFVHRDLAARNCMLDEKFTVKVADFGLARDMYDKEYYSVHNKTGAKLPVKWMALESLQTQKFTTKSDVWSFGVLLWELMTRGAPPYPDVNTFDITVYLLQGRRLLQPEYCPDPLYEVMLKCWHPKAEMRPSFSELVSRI

Structure (SMILES)	IC50 (DU145) [nM]	IC50 (VEGF receptor KDR) [nM]	IC50 [1] [nM]	IC50 (A549) [nM]
O=C(CC(Nc1ccc(F)cc1)C(F)(F)F)Nc1ccc(Oc2cc(NC(=O)N3CCCC3)ncn2)c(F)c1 (stereo not drawn) [Compound 9a, N-(6-(2-Fluoro-4-(4,4,4-trifluoro-3-(4-fluorophenylamino)butanamido)phenoxy)pyrimidin-4-yl)pyrrolidine-1-carboxamide]	5000 to 10000	≥ 1000	≥ 1000	1000 to 5000
O=C(Nc1ccc(Oc2cc(NC(=O)N3CCCC3)ncn2)c(F)c1)C1CCN(c2ccccc2)C1=O (stereo not drawn) [Compound 9b, N-(6-(2-Fluoro-4-(2-oxo-1-phenylpyrrolidine-3-carboxamido)phenoxy)pyrimidin-4-yl)pyrrolidine-1-carboxamide]	5000 to 10000	≥ 1000	≥ 1000	5000 to 10000
O=C(Nc1cc(Oc2ccc(NC(=O)N3CCN(c4ccccc4)C3=O)cc2F)ncn1)N1CCCC1 [Compound 9c, N-(3-Fluoro-4-(6-(pyrrolidine-1-carboxamido)pyrimidin-4-yloxy)phenyl)-2-oxo-3-phenylimidazolidine-1-carboxamide]	5000 to 10000	< 250	< 250	1000 to 5000
O=C(CC(Nc1ccc(Oc2cc(NC(=O)N3CCCC3)ncn2)c(F)c1)C(F)(F)F)Nc1ccccc1 (stereo not drawn) [Compound 13, N-(6-(2-Fluoro-4-(1,1,1-trifluoro-4-oxo-4-(phenylamino)butan-2-ylamino)phenoxy)pyrimidin-4-yl)pyrrolidine-1-carboxamide]	5000 to 10000	< 250	≥ 1000	5000 to 10000
O=C(Nc1cc(Oc2ccc(NC(=O)N3CCN(c4ccccc4)C3=O)cc2F)ccn1)N1CCCC1 [Compound 18a, N-(3-Fluoro-4-(2-(pyrrolidine-1-carboxamido)pyridin-4-yloxy)phenyl)-2-oxo-3-phenylimidazolidine-1-carboxamide]	≥ 1000	250 to 500	< 250	≥ 1000
O=C(Nc1cc(Oc2ccc(NC(=O)N3CCN(c4ccc(F)cc4)C3=O)cc2F)ccn1)N1CCCC1 [Compound 18b, N-(3-fluoro-4-(2-(pyrrolidine-1-carboxamido)pyridin-4-yloxy)phenyl)-3-(4-fluorophenyl)-2-oxoimidazolidine-1-carboxamide]	≥ 1000	< 250	< 250	≥ 1000
CN(C)CCCNC(=O)Nc1cc(Oc2ccc(NC(=O)N3CCN(c4ccccc4)C3=O)cc2F)ccn1 [Compound 18c, N-(4-(2-(3-(3-(dimethylamino)propyl)ureido)pyridin-4-yloxy)-3-fluorophenyl)-2-oxo-3-phenylimidazolidine-1-carboxamide]	≥ 1000	≥ 1000	500 to 1000	1000 to 5000
CN(C)CCOC(=O)Nc1cc(Oc2ccc(NC(=O)N3CCN(c4ccccc4)C3=O)cc2F)ccn1 [Compound 18d, 2-(dimethylamino)ethyl4-(2-fluoro-4-(2-oxo-3-phenylimidazolidine-1-carboxamido)phenoxy)pyridin-2-ylcarbamate]	> 10000	≥ 1000	250 to 500	> 10000
CN(C)[C@@H]1CCN(C(=O)Nc2cc(Oc3ccc(NC(=O)N4CCN(c5ccccc5)C4=O)cc3F)ccn2)C1 [Compound 18e, (R)-N-(4-(2-(3-(dimethylamino)pyrrolidine-1-carboxamido)pyridin-4-yloxy)-3-fluorophenyl)-2-oxo-3-phenylimidazolidine-1-carboxamide]	≥ 1000	250 to 500	< 250	≥ 1000
CN(C)[C@H]1CCN(C(=O)Nc2cc(Oc3ccc(NC(=O)N4CCN(c5ccccc5)C4=O)cc3F)ccn2)C1 [Compound 18f, (S)-N-(4-(2-(3-(dimethylamino)pyrrolidine-1-carboxamido)pyridin-4-yloxy)-3-fluorophenyl)-2-oxo-3-phenylimidazolidine-1-carboxamide]	≥ 1000	< 250	< 250	1000 to 5000
O=C(NCCN1CCOCC1)c1cc(Oc2ccc(NC(=O)N3CCN(c4ccc(F)cc4)C3=O)cc2F)ccn1 [Compound 87d, 4-(2-fluoro-4-(3-(4-fluorophenyl)-2-oxoimidazolidine-1-carboxamido)phenoxy)-N-(2-morpholinoethyl)picolinamide]	–	> 1000	≥ 1000	–
